Reference: patent publication US20190175744A1, “INSULIN-INCRETIN CONJUGATES” (Merck Sharp & Dohme Corp., priority 2016, published 2019)
Where two headings read alike, the source gives them in different places.

Columns and labels:
human GLP1R = human GLP1R (Homo sapiens, UniProt P43220); assay: cAMP activity assay, cells expressing human GLP1R; assay type: cell-based
Description: Activity of the incretin peptides or the conjugates at the Glucagon receptor (GCGR) and GLP-1 receptor (GLP1R) may be measured in a cAMP activity assay as follows.
Peptides are dissolved in 100% DMSO and serially diluted to generate 10 point titrations. The peptide solutions are then transferred into 384-well assay plates (150 nL/well). Assay ready frozen cells expressing human GLP1R or human GCGR are suspended in growth media consisting of DMEM medium (GIBCO), 10% FBS (GIBCO), 1×NEAA(GIBCO), 1×P/S (GIBCO), 10 μg/mL Blasticidin (GIBCO) and 200 μg/mL Hygromycin (GIBCO). […] The cell suspensions (15 μL) are then added to the assay plates containing the peptide solutions (30,000 cells/well for human GCGR; 10,000 cells/well for human GLP1R). The cells are incubated for one hour at room temperature in the dark.
Production of cAMP may be determined using HitHunterr cAMPXS kits (DiscoverX) following the manufacturer's protocol. The plates are incubated for overnight at room temperature in the dark. Luminescence may be measured using an EnVision Multilabel plate reader (Perkin Elmer). Native GLP-1 and Glucagon (Bachem) may be used as control peptides. EC50 values may be calculated using uses a 4 parameter logistic fit based on the Levenberg-Marquardt algorithm.

human GCGR = target: T1, human GCGR (Homo sapiens, UniProt P47871); assay: cAMP activity assay, cells expressing human GCGR; assay type: cell-based; conditions: for GCGR/GLP1R ratio: Table 5, ratio of hGCGR EC50 to hGLP1R EC50;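 on all read-outs here: cAMP production read by luminescence after one hour of peptide exposure at room temperature, EC50 from logistic curve fit, native glucagon and GLP-1 as control peptides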
T1 construct: expressed in transfected cells; grown with Blasticidin and Hygromycin
T1 sequence (P47871 26-477): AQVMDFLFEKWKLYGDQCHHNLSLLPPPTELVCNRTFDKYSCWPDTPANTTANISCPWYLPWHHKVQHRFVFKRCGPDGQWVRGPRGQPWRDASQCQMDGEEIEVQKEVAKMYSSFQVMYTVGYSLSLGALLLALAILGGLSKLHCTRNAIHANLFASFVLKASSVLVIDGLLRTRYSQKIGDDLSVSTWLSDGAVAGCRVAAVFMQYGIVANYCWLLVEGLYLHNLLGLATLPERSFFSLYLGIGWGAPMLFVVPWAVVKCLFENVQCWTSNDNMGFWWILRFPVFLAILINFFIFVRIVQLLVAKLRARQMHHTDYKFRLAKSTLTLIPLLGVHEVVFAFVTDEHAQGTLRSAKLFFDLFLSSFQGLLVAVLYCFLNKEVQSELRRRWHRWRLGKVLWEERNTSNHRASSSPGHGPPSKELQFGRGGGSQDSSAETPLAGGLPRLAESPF

[1] = Table 5, incretin peptides, cAMP, read-out: hGLP1R EC50

human GLP1R, sequence (P43220 24-463): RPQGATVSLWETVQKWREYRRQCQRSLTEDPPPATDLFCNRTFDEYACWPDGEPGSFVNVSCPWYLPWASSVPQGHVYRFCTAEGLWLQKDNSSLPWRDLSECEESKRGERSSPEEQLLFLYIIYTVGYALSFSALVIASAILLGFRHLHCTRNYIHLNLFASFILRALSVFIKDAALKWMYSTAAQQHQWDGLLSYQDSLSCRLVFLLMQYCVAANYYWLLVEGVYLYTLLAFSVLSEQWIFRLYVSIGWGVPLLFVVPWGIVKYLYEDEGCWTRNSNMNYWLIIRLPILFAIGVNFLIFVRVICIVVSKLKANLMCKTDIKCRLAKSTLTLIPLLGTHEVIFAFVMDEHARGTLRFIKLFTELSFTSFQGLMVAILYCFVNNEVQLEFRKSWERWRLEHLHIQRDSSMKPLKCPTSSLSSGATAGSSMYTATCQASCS

Row | SMILES | EC50 (human GLP1R; [1]) | EC50 (human GCGR) | GCGR/GLP1R ratio (human GCGR) | EC50 (human GLP1R)
1 | CCCCCCCCCCCCCCCC(=O)N[C@@H](CCC(=O)N[C@@H](CCC(=O)NCCCC[C@H](NC(=O)[C@H](CC(=O)O)NC(=O)[C@H](CO)NC(=O)[C@@H](NC(=O)[C@H](Cc1ccccc1)NC(=O)[C@@H](NC(=O)CNC(=O)[C@H](CCC(N)=O)NC(=O)[C@@H](CO)NC(=O)[C@@H](N)Cc1c[nH]cn1)[C@@H](C)O)[C@@H](C)O)C(=O)N[C@@H](CO)C(=O)N[C@@H](CCCCN)C(=O)N[C@@H](Cc1ccc(O)cc1)C(=O)N[C@@H](CC(C)C)C(=O)N[C@@H](CC(=O)O)C(=O)N[C@@H](CCC(=O)O)C(=O)N[C@@H](CCCNC(=N)N)C(=O)N[C@@H](C)C(=O)N[C@@H](C)C(=O)N[C@@H](CCCCNC(=O)COCCOCCNC(=O)COCCOCCNC(=O)CCCCN=[N+]=[N-])C(=O)N[C@@H](CC(=O)O)C(=O)N[C@@H](Cc1ccccc1)C(=O)N[C@H](C(=O)N[C@@H](CCC(N)=O)C(=O)N[C@@H](Cc1c[nH]c2ccccc12)C(=O)N[C@@H](CC(C)C)C(=O)N[C@@H](CC(C)C)C(=O)N[C@@H](CC(=O)O)C(=O)N[C@H](C(N)=O)[C@@H](C)O)C(C)C)C(=O)O)C(=O)O [PEP17] | 0.05 nM | 0.06 nM | 1.2 | 
2 | CCCCCCCCCCCCCCCC(=O)N[C@@H](CCC(=O)N[C@@H](CCC(=O)NCCCC[C@H](NC(=O)[C@H](CC(=O)O)NC(=O)[C@H](CO)NC(=O)[C@@H](NC(=O)[C@H](Cc1ccccc1)NC(=O)[C@@H](NC(=O)CNC(=O)[C@H](CCC(N)=O)NC(=O)[C@@H](CO)NC(=O)[C@@H](N)Cc1c[nH]cn1)[C@@H](C)O)[C@@H](C)O)C(=O)N[C@@H](CO)C(=O)N[C@@H](CCCCN)C(=O)N[C@@H](Cc1ccc(O)cc1)C(=O)N[C@@H](CC(C)C)C(=O)N[C@@H](CC(=O)O)C(=O)N[C@@H](CCC(=O)O)C(=O)N[C@@H](CCCNC(=N)N)C(=O)N[C@@H](C)C(=O)N[C@@H](C)C(=O)N[C@@H](CCC(N)=O)C(=O)N[C@@H](CCCCN=[N+]=[N-])C(=O)N[C@@H](Cc1ccccc1)C(=O)N[C@H](C(=O)N[C@@H](CCC(N)=O)C(=O)N[C@@H](Cc1c[nH]c2ccccc12)C(=O)N[C@@H](CC(C)C)C(=O)N[C@@H](CC(C)C)C(=O)N[C@@H](CC(=O)O)C(=O)N[C@H](C(N)=O)[C@@H](C)O)C(C)C)C(=O)O)C(=O)O [PEP1] | 0.03 nM |  | 0.5 | 
3 | CCCCCCCCCCCCCCCC(=O)N[C@@H](CCC(=O)N[C@@H](CCC(=O)NCCCC[C@H](NC(=O)[C@H](CC(=O)O)NC(=O)[C@H](CO)NC(=O)[C@@H](NC(=O)[C@H](Cc1ccccc1)NC(=O)[C@@H](NC(=O)CNC(=O)[C@H](CCC(N)=O)NC(=O)C(C)(C)NC(=O)[C@@H](N)Cc1c[nH]cn1)[C@@H](C)O)[C@@H](C)O)C(=O)N[C@@H](CO)C(=O)N[C@@H](CCCCN)C(=O)N[C@@H](Cc1ccc(O)cc1)C(=O)N[C@@H](CC(C)C)C(=O)N[C@@H](CC(=O)O)C(=O)NC(C)(C)C(=O)N[C@@H](CCCNC(=N)N)C(=O)N[C@@H](C)C(=O)N[C@@H](C)C(=O)N[C@@H](CCC(N)=O)C(=O)N[C@@H](CC(=O)O)C(=O)N[C@@H](Cc1ccccc1)C(=O)N[C@H](C(=O)N[C@@H](CCC(N)=O)C(=O)N[C@@H](Cc1c[nH]c2ccccc12)C(=O)N[C@@H](CC(C)C)C(=O)N[C@@H](CC(C)C)C(=O)N[C@@H](CC(=O)O)C(=O)N[C@H](C(=O)N[C@@H](CCCCN)C(=O)N[C@@H](CCCCNC(=O)COCCOCCNC(=O)CCCCN=[N+]=[N-])C(N)=O)[C@@H](C)O)C(C)C)C(=O)O)C(=O)O [PEP20] |  | 0.1 nM | 2.0 | 0.05 nM
4 | CCCCCCCCCCCCCCCC(=O)N[C@@H](CCC(=O)N[C@@H](CCC(=O)NCCCC[C@H](NC(=O)[C@H](CC(=O)O)NC(=O)[C@H](CO)NC(=O)[C@@H](NC(=O)[C@H](Cc1ccccc1)NC(=O)[C@@H](NC(=O)CNC(=O)[C@H](CCC(N)=O)NC(=O)[C@@H](CO)NC(=O)[C@@H](N)Cc1c[nH]cn1)[C@@H](C)O)[C@@H](C)O)C(=O)N[C@@H](CO)C(=O)N[C@@H](CCCCN)C(=O)N[C@@H](Cc1ccc(O)cc1)C(=O)N[C@@H](CC(C)C)C(=O)N[C@@H](CC(=O)O)C(=O)N[C@@H](CC(N)=O)C(=O)N[C@@H](CCCCN)C(=O)N[C@@H](CCCNC(=N)N)C(=O)N[C@@H](C)C(=O)N[C@@H](CCC(N)=O)C(=O)N[C@@H](CC(=O)O)C(=O)N[C@@H](Cc1ccccc1)C(=O)N[C@H](C(=O)N[C@@H](CCCCN=[N+]=[N-])C(=O)N[C@@H](Cc1c[nH]c2ccccc12)C(=O)N[C@@H](CC(C)C)C(=O)N[C@@H](CC(C)C)C(=O)N[C@@H](CCC(N)=O)C(=O)N[C@H](C(N)=O)[C@@H](C)O)C(C)C)C(=O)O)C(=O)O [PEP12] |  | 0.02 nM | 0.3 | 0.07 nM
5 | CCCCCCCCCCCCCCCC(=O)N[C@@H](CCC(=O)N[C@@H](CCC(=O)NCCCC[C@H](NC(=O)[C@](C)(CC(=O)O)NC(=O)[C@H](CO)NC(=O)[C@@H](NC(=O)[C@H](Cc1ccccc1)NC(=O)[C@@H](NC(=O)CNC(=O)[C@H](CCC(N)=O)NC(=O)[C@@H](CO)NC(=O)[C@@H](N)Cc1c[nH]cn1)[C@@H](C)O)[C@@H](C)O)C(=O)N[C@@H](CO)C(=O)N[C@@H](CCCCN)C(=O)N[C@@H](Cc1ccc(O)cc1)C(=O)N[C@@H](CC(C)C)C(=O)N[C@@H](CC(=O)O)C(=O)N[C@@H](CCC(=O)O)C(=O)N[C@@H](CCCNC(=N)N)C(=O)N[C@@H](C)C(=O)N[C@@H](C)C(=O)N[C@@H](CCC(N)=O)C(=O)N[C@@H](CC(=O)O)C(=O)N[C@@H](Cc1ccccc1)C(=O)N[C@H](C(=O)N[C@@H](CCCCN=[N+]=[N-])C(=O)N[C@@H](Cc1c[nH]c2ccccc12)C(=O)N[C@@H](CC(C)C)C(=O)N[C@@H](CCS(C)(=O)=O)C(=O)N[C@@H](CC(=O)O)C(=O)N[C@H](C(N)=O)[C@@H](C)O)C(C)C)C(=O)O)C(=O)O [PEP32] |  | 0.06 nM | 1.5 | 0.04 nM
6 | CCCCCCCCCCCCCCCC(=O)N[C@@H](CCC(=O)N[C@@H](CCC(=O)NCCCC[C@H](NC(=O)[C@H](CC(=O)O)NC(=O)[C@H](CO)NC(=O)[C@@H](NC(=O)[C@H](Cc1ccccc1)NC(=O)[C@@H](NC(=O)CNC(=O)[C@H](CCC(N)=O)NC(=O)[C@@H](CO)NC(=O)[C@@H](N)Cc1c[nH]cn1)[C@@H](C)O)[C@@H](C)O)C(=O)N[C@@H](CO)C(=O)N[C@@H](CCCCN)C(=O)N[C@@H](Cc1ccc(O)cc1)C(=O)N[C@@H](CC(C)C)C(=O)N[C@@H](CC(=O)O)C(=O)N[C@@H](CCC(=O)O)C(=O)N[C@@H](CCCNC(=N)N)C(=O)N[C@@H](C)C(=O)N[C@@H](C)C(=O)N[C@@H](CCCCNC(=O)COCCOCCNC(=O)CCCCN=[N+]=[N-])C(=O)N[C@@H](CC(=O)O)C(=O)N[C@@H](Cc1ccccc1)C(=O)N[C@H](C(=O)N[C@@H](CCC(N)=O)C(=O)N[C@@H](Cc1c[nH]c2ccccc12)C(=O)N[C@@H](CC(C)C)C(=O)N[C@@H](CC(C)C)C(=O)N[C@@H](CC(=O)O)C(=O)N[C@H](C(N)=O)[C@@H](C)O)C(C)C)C(=O)O)C(=O)O [PEP16] | 0.06 nM | 0.05 nM | 0.8 | 
